Consider two compounds from patent publication US9012166B2, “Method for assaying histone methylation enzyme activity” (Kyushu Institute of Technology, priority 2010, dated 2015).

Molecules are shown by their SMILES. Like-named read-outs stand apart in the source and are kept apart here. Bounds are passed on as bounds.

Common to all, as to type: biochemical
In assay [1] the target is T1, Set9 (His-Set9, His-Set7/9) (Homo sapiens, UniProt Q8WTS6).
T1 sequence (Q8WTS6 1-366): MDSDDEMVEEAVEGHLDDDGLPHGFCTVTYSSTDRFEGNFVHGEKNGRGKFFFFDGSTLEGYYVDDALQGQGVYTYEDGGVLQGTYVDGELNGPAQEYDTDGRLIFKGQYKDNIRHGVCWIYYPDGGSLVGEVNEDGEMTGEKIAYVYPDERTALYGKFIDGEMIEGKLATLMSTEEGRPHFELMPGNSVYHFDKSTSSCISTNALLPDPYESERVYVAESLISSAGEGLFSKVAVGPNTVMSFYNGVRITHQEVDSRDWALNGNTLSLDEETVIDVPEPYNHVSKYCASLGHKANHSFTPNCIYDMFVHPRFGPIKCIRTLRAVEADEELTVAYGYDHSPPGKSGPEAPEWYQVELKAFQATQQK
Briefly: Assay for measuring histone methyltransferase activity using peptidyl MCA, inhibitor evaluation with Set9. The procedure:
When Set9 was adopted as a histone methyltransferase, the following method was used. 10 μL of 2×HMT buffer (100 mM Tris-HCl (pH 8.5), 20 mM MgCl2, 40 mM KCl, 20 mM 2-mercaptoethanol, 500 mM sucrose), 0.4 μL of a BSA solution (150 μg/mL), 4.5 μL of His-Set9 (0, 2.25 μg/μL), 1 μL of gliotoxin (any of various concentrations) and 0.1 μL of distilled water were mixed and then incubated at room temperature for 1 hour. Then, 2 μL of SAM (10 mM) and 2 μL of a peptidyl MCA (Ac-p53 (369-372)-MCA) solution (0.6 mM) were added thereto, which was then incubated at 37° C. for 1 hour. Thereafter, 30 μL of a trypsin solution (20 mg/mL) was added thereto, followed by incubation at 37° C. for 15 minutes. Then, the fluorescence intensity of the solution was measured at an excitation wavelength (λex) of 390 nm and a fluorescence wavelength (λem) of 460 nm. The final concentration of His-Set9 during the measurement of fluorescence intensity was 0.5 μg/μL. […]
The rate of the inhibition of methylation by gliotoxin was calculated from the results in the left panel and the middle panel of FIG. 18. Specifically, the value (%) was calculated which was obtained by dividing “a value obtained by subtracting “the fluorescence intensity of AMC when peptidase was added but gliotoxin was not added” from “the fluorescence intensity of AMC when both peptidase and gliotoxin were added”” by “a value obtained by subtracting “the fluorescence intensity of AMC when peptidase was added but gliotoxin was not added” from “the fluorescence intensity of AMC when no peptidase or gliotoxin was added”” and multiplying the resultant value by 100. […]
When His-Set7/9 was adopted as a histone methyltransferase, the following method was used. […] Then, the fluorescence intensity of the solution was measured at an excitation wavelength (λex) of 330 nm and a fluorescence wavelength (λem) of 380 nm or at an excitation wavelength (λex) of 390 nm and a fluorescence wavelength (λem) of 460 nm. The final concentration of His-Set7/9 during the measurement of fluorescence intensity was 0 μg/μL or 0.05 μg/μL.

A further assay concerns the target T2, Set9 (Homo sapiens, UniProt Q8WTS6).
T2 sequence (Q8WTS6 1-366): T1 sequence (Q8WTS6 1-366)
Briefly: Western blot evaluation of histone methyltransferase inhibitor, Set9. Conditions: FIG. 17. The protocol:
To examine whether the activity of a histone methyltransferase inhibitor could be evaluated by an assay for measuring histone methyltransferase activity using a peptidyl MCA, the assay for measuring histone methyltransferase activity was attempted. However, the activity of gliotoxin as a histone methyltransferase inhibitor was evaluated by Western blot, prior to the assay for measuring histone methyltransferase activity. Gliotoxin is known not to inhibit the methylation activity of Set9 but to inhibit the methylation activity of G9a. […] The following assay for measuring histone methyltransferase activity was carried out in order to examine whether the same results as those from the Western blot could also be obtained from the assay for measuring histone methyltransferase activity.
On the technique in general: Immunoblotting shows a protein as a band on a membrane.

The target of the next assay is lysyl endopeptidase (Achromobacter lyticus, UniProt P15636). Briefly: LC/MS analysis of reaction between substrate compound and lysyl endopeptidase. Conditions: Example 3; 37° C., 15 minutes. The protocol: (§1) Distilled water was added to 10 μL of 2×HMT buffer (100 mM Tris-HCl (pH 8.5), 20 mM MgCl2, 40 mM KCl, 20 mM 2-mercaptoethanol, 500 mM sucrose) and 1 μL of a BocLysMCA solution to adjust the total volume to 20 μL. To the resultant solution was added 30 μL of a peptidase solution (20 mg/mL trypsin or 20 mAU/mL lysyl endopeptidase), which was then mixed and incubated at 37° C. for 15 minutes. Then, the solution was applied to a liquid chromatograph mass spectrometer (LC/MS) for analysis. Analysis was performed by the same method as that for the above analysis except for using monomethylated BocLysMCA (i.e., “BocLys(Me)MCA”), dimethylated BocLysMCA (i.e., “BocLys(Me)2MCA”), or trimethylated BocLysMCA (i.e., “BocLys(Me)3MCA”) in place of BocLysMCA. Analysis was also carried out by the same method except for using, in place of the above-described peptidase solution, an equal volume of distilled water.

Another assay relates to trypsin. The assay is described as follows: LC/MS analysis of reaction between substrate compound and trypsin. The conditions noted are these: Example 3; 37° C., 15 minutes. The protocol:
as §1

lysyl endopeptidase, sequence (P15636 206-473 limits assumed, species assumed): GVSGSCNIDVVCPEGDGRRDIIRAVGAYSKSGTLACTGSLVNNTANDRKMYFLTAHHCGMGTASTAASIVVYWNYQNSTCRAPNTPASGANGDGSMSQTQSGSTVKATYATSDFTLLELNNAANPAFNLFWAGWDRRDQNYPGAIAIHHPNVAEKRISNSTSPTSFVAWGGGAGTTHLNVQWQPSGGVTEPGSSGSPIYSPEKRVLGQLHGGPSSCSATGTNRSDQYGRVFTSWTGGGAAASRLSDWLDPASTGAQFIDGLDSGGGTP

As for `CN1C(=O)[C@]23CC4=CC=C[C@H](O)[C@H]4N2C(=O)[C@@]1(CO)SS3` [gliotoxin], the IC50 in assay [1] (Example 8, Ac-p53 (369-372)-MCA, AMC fluorescence λex 390 nm/λem 460 nm, FIG. 18, read-out: IC50 for Set9) was more than 100 µM; in assay [1] (Example 14, Ac-ERα(299-302)-MCA, AMC fluorescence λex 390 nm/λem 460 nm, left panel, read-out: IC50 for His-Set7/9), more than 100 µM; in assay [1] (Example 14, Ac-ERα(299-302)-MCA, peptidyl MCA fluorescence λex 330 nm/λem 380 nm, right panel of FIG. 28, read-out: IC50 for His-Set7/9) it was more than 100 µM. At Set9, the “inhibition of the methylation of Set9 (Western blot)” value is “did not inhibit”.
In the case of `Cc1cc(=O)oc2cc(NC(=O)C(CCCCN)NC(=O)OC(C)(C)C)ccc12` (stereo not drawn) [BocLysMCA, Boc-K-MCA], the “hydrolysis by lysyl endopeptidase (LC/MS peaks)” value at lysyl endopeptidase is given as “most BocLysMCA was hydrolyzed”. Besides, the “hydrolysis by trypsin (LC/MS peaks)” value with trypsin is recorded as “most BocLysMCA was hydrolyzed”.
